Measurements from patent publication US20120121546A1, “Method of Producing Progenitor Cells from Differentiated Cells” (priority 2009, published 2012).

Test system: human dermal fibroblasts
Test: Adipogenesis (Oil Red O) of fibroblasts detached with trypsin and seeded at high density
Format: cell-based
Experimental: After incubation for about 12-21 days in adipogenic medium, the medium is removed, and cells are fixed in 10% formaldehyde solution in aqueous phosphate buffer for at least 1 hour. Cells are then washed with 60% isopropanol and stained with a working solution of Oil Red 0 solution (in 60% isopropanol, see below for preparation) for 10 minutes. The cells are then washed several times with water, and destained in 100% isopropanol for 15 minutes. The destain solution is removed and the optical density of the solution is measured at 500-510 nm.
In a this set of experiments for producing cells having the ability to differentiate into different cell types, fibroblasts are either incubated in media without trypsin or containing trypsin and then cultured at different lengths of time under high density conditions of about 100,000 cells per well/plate or at about 3703.7 cells per mm^2 surface area of the well/plate before adherence of the cells in a high density plating medium. The cells produced by this method are then tested for their ability to differentiate into adipocytes, as determined by the accumulation of fat.
Fresh human dermal fibroblasts derived from adult skin or from foreskin are purchased from PromoCell® (Banksia Scientific Company, QLD). […]
Test cells are recovered from culture and seeded at concentrations of about 100,000 cells per well/plate or at about 3703.7 cells per mm^2 surface area of the well/plate before attachment of the cells to the plate/well directly in 200 to 400 μl high density plating medium (e.g., Medium 199 containing 170 nM insulin, 0.5 mM 3-isobutyl-1-methylxanthine, 0.2 mM indomethacin, 1 μM dexamethasone, and 15% rabbit serum) for a time and under conditions sufficient for an optimum number of progenitor cells to be produced e.g., for up to about 24 hours or until adherence is achieved, i.e., a shorter time than required for cells to become adherent and/or as determined by analysis of cell marker expression and/or by the ability of aliquots of cells to subsequently undergo differentiation. […]

trypsin
ability to differentiate into adipocytes (detached with 0.12% trypsin, seeded at about 100,000 cells per well in high density plating medium before adherence, then adipogenic medium, cells without trypsin gave no detectable adipocytes): capable of differentiating into adipocytes | optimum time in adipogenic medium for assuming ability to differentiate into adipocytes (numbers of fat-producing cells assayed from day 10 to day 21 in adipogenic medium): 10 to 14 days | time from incubation with trypsin to high density seeding at which adipocytes are apparent (seeding directly into high density plating medium): ≤ 6 h
